Patent US11753407B2, “Compounds for treating spinal muscular atrophy” (PTC Therapeutics, Inc., priority 2012, dated 2023)

Columns and labels:
[1] = tested on: SMN2 minigene mRNA (SMN2-A minigene) in HEK293H cells; experiment: SMN2 minigene mRNA splicing RT-qPCR assay in cultured cells; assay type: cell-based, human; settings: Homo sapiens, HEK293-H; concentration increasing full length SMN2 mRNA 1.5-fold relative to vehicle-treated cells; HEK293H cells with SMN2-A minigene, 24 hours, 7-point concentration data; read-out: EC1.5x for production of full length SMN2 mRNA
How it was run: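 Stable SMN2-A minigene HEK293H; cpd 7-pt 3.16-fold series, 200× in DMSO, 24 h, 37 °C, n=2. Lysates → multiplex RT-qPCR (minigene FL + GAPDH), efficiency-corrected ΔΔCt vs vehicle. EC1.5× = 1.5-fold FL mRNA gain.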

[2] = tested on: Smn protein in SMA patient fibroblast cells (GM03813); experiment: Smn protein assay in cultured cells (SMN HTRF); assay type: cell-based, human; settings: SMA patient fibroblast cells, 48 hours; for EC1.5x for Smn protein expression: 7-point concentration curve, SMN HTRF, concentration producing 1.5 times Smn protein vs DMSO vehicle control; for maximum fold (Fold) increase of Smn protein: 7-point concentration data, fold relative to vehicle control
How it was run: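 Fibroblasts, SMA patient; 5,000 cells/well; 7-pt curve, 3.16-fold serial dilution; 48 h, 37 °C, 5% CO2; RIPA lysis 1 h RT; anti-SMN d2 + kryptate overnight RT; HTRF 665/620 nm; fold vs DMSO; EC1.5×, max fold.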

Cc1cc2cc(-c3cc(=O)n4cc(N5CCN(C)CC5)ccc4n3)oc2c(C)n1 [Compound 487, 2-(5,7-dimethylfuro[2,3-c]pyridin-2-yl)-7-(4-methylpiperazin-1-yl)-4H-pyrido[1,2-a]pyrimidin-4-one]
EC (1.5-fold increase) [1]: 0.1 to 0.3 µM | EC1.5x for Smn protein expression [2]: **** (an EC1.5x≤0.3 μM is indicated by four stars (****)) | maximum fold (Fold) increase of Smn protein [2]: **** (a fold increase between >1.5 and ≤1.65 is indicated by four stars (****)) | melting point: 256 to 258 °C

Cc1cc2cc(-c3cc(=O)n4cc(N5CCN[C@@H](C)C5)ccc4n3)oc2c(C)n1 [Compound 488, 2-(5,7-dimethylfuro[2,3-c]pyridin-2-yl)-7-[(3S)-3-methylpiperazin-1-yl]-4H-pyrido[1,2-a]pyrimidin-4-one]
EC (1.5-fold increase) [1]: < 0.1 µM | EC1.5x for Smn protein expression [2]: **** (an EC1.5x≤0.3 μM is indicated by four stars (****)) | maximum fold (Fold) increase of Smn protein [2]: **** (a fold increase between >1.5 and ≤1.65 is indicated by four stars (****)) | melting point: 202 to 204 °C

CN1CCN(c2ccc3nc(-c4ccc5c(cnn5C)c4)cc(=O)n3c2)CC1 [Compound 489, 2-(1-methyl-1H-indazol-5-yl)-7-(4-methylpiperazin-1-yl)-4H-pyrido[1,2-a]pyrimidin-4-one]
EC (1.5-fold increase) [1]: 0.1 to 0.3 µM | EC1.5x for Smn protein expression [2]: ** (an EC1.5× between >1 μM and ≤3 μM is indicated by two stars (**)) | maximum fold (Fold) increase of Smn protein [2]: **** (a fold increase between >1.5 and ≤1.65 is indicated by four stars (****)) | melting point: 194 to 196 °C

Cn1ncc2cc(-c3cc(=O)n4cc(N5CCNCC5)ccc4n3)ccc21 [Compound 490, 2-(1-methyl-1H-indazol-5-yl)-7-(piperazin-1-yl)-4H-pyrido[1,2-a]pyrimidin-4-one]
EC (1.5-fold increase) [1]: < 0.1 µM | EC1.5x for Smn protein expression [2]: *** (an EC1.5× between >0.3 μM and ≤1 μM is indicated by three stars (***)) | maximum fold (Fold) increase of Smn protein [2]: ***** (a fold increase >1.65 is indicated by five stars (*****)) | melting point: 206 to 208 °C

CN(C)C1CCN(c2ccc3nc(-c4ccc5c(cnn5C)c4)cc(=O)n3c2)CC1 [Compound 491, 7-[4-(dimethylamino)piperidin-1-yl]-2-(1-methyl-1H-indazol-5-yl)-4H-pyrido[1,2-a]pyrimidin-4-one]
EC (1.5-fold increase) [1]: 0.3 to 1 µM | EC1.5x for Smn protein expression [2]: ** (an EC1.5× between >1 μM and ≤3 μM is indicated by two stars (**)) | maximum fold (Fold) increase of Smn protein [2]: **** (a fold increase between >1.5 and ≤1.65 is indicated by four stars (****)) | melting point: 209 to 212 °C

CCN1CC=C(c2ccc3nc(-c4ccc5nc(C)oc5c4)cc(=O)n3n2)CC1 [Compound 493, 7-(1-ethyl-1,2,3,6-tetrahydropyridin-4-yl)-2-(2-methyl-1,3-benzoxazol-6-yl)-4H-pyrimido[1,2-b]pyridazin-4-one]
EC (1.5-fold increase) [1]: < 0.1 µM | EC1.5x for Smn protein expression [2]: *** (an EC1.5× between >0.3 μM and ≤1 μM is indicated by three stars (***)) | maximum fold (Fold) increase of Smn protein [2]: **** (a fold increase between >1.5 and ≤1.65 is indicated by four stars (****)) | melting point: 205 to 207 °C

CCN1CCN(c2ccc3nc(-c4cc(Cl)c5nc(C)cn5c4)cc(=O)n3c2)CC1 [Compound 494, 2-(8-chloro-2-methylimidazo[1,2-a]pyridin-6-yl)-7-(4-ethylpiperazin-1-yl)-4H-pyrido[1,2-a]pyrimidin-4-one]
EC (1.5-fold increase) [1]: < 0.1 µM | EC1.5x for Smn protein expression [2]: **** (an EC1.5x≤0.3 μM is indicated by four stars (****)) | maximum fold (Fold) increase of Smn protein [2]: **** (a fold increase between >1.5 and ≤1.65 is indicated by four stars (****)) | melting point: 264 to 268 °C

CCN1CCN(c2ccc3nc(-c4cc(Cl)c5nc(C)cn5c4)cc(=O)n3c2)C[C@H]1C [Compound 495, 2-(8-chloro-2-methylimidazo[1,2-a]pyridin-6-yl)-7-[(3R)-4-ethyl-3-methylpiperazin-1-yl]-4H-pyrido[1,2-a]pyrimidin-4-one]
EC (1.5-fold increase) [1]: < 0.1 µM | EC1.5x for Smn protein expression [2]: **** (an EC1.5x≤0.3 μM is indicated by four stars (****)) | maximum fold (Fold) increase of Smn protein [2]: ***** (a fold increase >1.65 is indicated by five stars (*****)) | melting point: 239 to 245 °C

CCN1CCN(c2ccc3nc(-c4cc(Cl)c5nc(C)cn5c4)cc(=O)n3c2)C[C@@H]1C [Compound 496, 2-(8-chloro-2-methylimidazo[1,2-a]pyridin-6-yl)-7-[(3S)-4-ethyl-3-methylpiperazin-1-yl]-4H-pyrido[1,2-a]pyrimidin-4-one]
EC (1.5-fold increase) [1]: < 0.1 µM | EC1.5x for Smn protein expression [2]: **** (an EC1.5x≤0.3 μM is indicated by four stars (****)) | maximum fold (Fold) increase of Smn protein [2]: ***** (a fold increase >1.65 is indicated by five stars (*****)) | melting point: 234 to 245 °C

Cc1cn2cc(-c3cc(=O)n4cc(N5CCN(C(C)C)[C@H](C)C5)ccc4n3)cc(Cl)c2n1 [Compound 497, 2-(8-chloro-2-methylimidazo[1,2-a]pyridin-6-yl)-7-[(3R)-3-methyl-4-(propan-2-yl)piperazin-1-yl]-4H-pyrido[1,2-a]pyrimidin-4-one]
EC (1.5-fold increase) [1]: < 0.1 µM | EC1.5x for Smn protein expression [2]: *** (an EC1.5× between >0.3 μM and ≤1 μM is indicated by three stars (***)) | maximum fold (Fold) increase of Smn protein [2]: **** (a fold increase between >1.5 and ≤1.65 is indicated by four stars (****)) | melting point: 278 to 281 °C

Cc1cn2cc(-c3cc(=O)n4cc(N5CCN(C(C)C)[C@@H](C)C5)ccc4n3)cc(Cl)c2n1 [Compound 498, 2-(8-chloro-2-methylimidazo[1,2-a]pyridin-6-yl)-7-[(3S)-3-methyl-4-(propan-2-yl)piperazin-1-yl]-4H-pyrido[1,2-a]pyrimidin-4-one]
EC (1.5-fold increase) [1]: < 0.1 µM | EC1.5x for Smn protein expression [2]: **** (an EC1.5x≤0.3 μM is indicated by four stars (****)) | maximum fold (Fold) increase of Smn protein [2]: ***** (a fold increase >1.65 is indicated by five stars (*****)) | melting point: 264 to 270 °C

Cc1nc2ccc(-c3cc(=O)n4nc(C5CCNCC5)ccc4n3)cc2o1 [Compound 499, 2-(2-methyl-1,3-benzoxazol-6-yl)-7-(piperidin-4-yl)-4H-pyrimido[1,2-b]pyridazin-4-one]
EC (1.5-fold increase) [1]: < 0.1 µM | EC1.5x for Smn protein expression [2]: **** (an EC1.5x≤0.3 μM is indicated by four stars (****)) | maximum fold (Fold) increase of Smn protein [2]: ***** (a fold increase >1.65 is indicated by five stars (*****)) | melting point: 126 to 128 °C

Cc1nc2ccc(-c3cc(=O)n4nc(C5CCN(C)CC5)ccc4n3)cc2o1 [Compound 500, 2-(2-methyl-1,3-benzoxazol-6-yl)-7-(1-methylpiperidin-4-yl)-4H-pyrimido[1,2-b]pyridazin-4-one]
EC (1.5-fold increase) [1]: 0.1 to 0.3 µM | EC1.5x for Smn protein expression [2]: *** (an EC1.5× between >0.3 μM and ≤1 μM is indicated by three stars (***)) | maximum fold (Fold) increase of Smn protein [2]: ***** (a fold increase >1.65 is indicated by five stars (*****)) | melting point: 272 to 275 °C

CCN1CCC(c2ccc3nc(-c4ccc5nc(C)oc5c4)cc(=O)n3n2)CC1 [Compound 501, 7-(1-ethylpiperidin-4-yl)-2-(2-methyl-1,3-benzoxazol-6-yl)-4H-pyrimido[1,2-b]pyridazin-4-one]
EC (1.5-fold increase) [1]: 0.1 to 0.3 µM | EC1.5x for Smn protein expression [2]: *** (an EC1.5× between >0.3 μM and ≤1 μM is indicated by three stars (***)) | maximum fold (Fold) increase of Smn protein [2]: ***** (a fold increase >1.65 is indicated by five stars (*****)) | melting point: 284 to 286 °C

Cc1cn2nc(-c3cc(=O)n4cc(C5CCN(C)CC5)ncc4n3)cc2c(C)n1 [Compound 503, 2-(4,6-dimethylpyrazolo[1,5-a]pyrazin-2-yl)-7-(1-methylpiperidin-4-yl)-4H-pyrazino[1,2-a]pyrimidin-4-one]
EC (1.5-fold increase) [1]: < 0.1 µM | EC1.5x for Smn protein expression [2]: **** (an EC1.5x≤0.3 μM is indicated by four stars (****)) | maximum fold (Fold) increase of Smn protein [2]: ***** (a fold increase >1.65 is indicated by five stars (*****)) | melting point: 257 to 259 °C

Cn1ncc2cc(-c3cc(=O)n4cc(C5=CCNCC5)ncc4n3)ccc21 [Compound 505, 2-(1-methyl-1H-indazol-5-yl)-7-(1,2,3,6-tetrahydropyridin-4-yl)-4H-pyrazino[1,2-a]pyrimidin-4-one]
EC (1.5-fold increase) [1]: < 0.1 µM | EC1.5x for Smn protein expression [2]: **** (an EC1.5x≤0.3 μM is indicated by four stars (****)) | maximum fold (Fold) increase of Smn protein [2]: **** (a fold increase between >1.5 and ≤1.65 is indicated by four stars (****)) | melting point: 228 to 230 °C

CN1CC=C(c2cn3c(=O)cc(-c4ccc5c(cnn5C)c4)nc3cn2)CC1 [Compound 506, 2-(1-methyl-1H-indazol-5-yl)-7-(1-methyl-1,2,3,6-tetrahydropyridin-4-yl)-4H-pyrazino[1,2-a]pyrimidin-4-one]
EC (1.5-fold increase) [1]: < 0.1 µM | EC1.5x for Smn protein expression [2]: **** (an EC1.5x≤0.3 μM is indicated by four stars (****)) | maximum fold (Fold) increase of Smn protein [2]: **** (a fold increase between >1.5 and ≤1.65 is indicated by four stars (****)) | melting point: 234 to 236 °C
